Experimental data taken from patent US20090227600A1, “4-(PYRAZINE-2-YL) -PYRROLIDINE -2-CARBOXYLIC ACID COMPOUNDS AND DERIVATIVES THEREOF AS HEPATITIS C VIRUS INHIBITORS” (priority 2004, published 2009).

Test system: Huh-7 HCV replicon cells (sub-line 5-15; genotype 1b)
Test: Replicon ELISA cell based assay, genotype 1b
Design: species or system HCV genotype 1b
Details: Hepatitis C virus, Huh-7 genotype 1b replicon (sub-line 5-15), 72 hours
Procedure: 100 μL of medium containing 10% FCS were added to each well of clear, flat-bottomed 96 well microplates, excepting wells in the top row. Test compound was diluted in assay medium to twice the final required starting concentration from a 40 mM stock solution in DMSO. 200 μL of the starting dilution were introduced into two wells each in the top row and doubling dilutions made down the plate by the sequential transfer of 100 μL aliquots with thorough mixing in the wells; the final 100 μL were discarded. The two bottom rows were not used for compound dilutions. Huh-7 HCV replicon cell monolayers nearing confluency were stripped from growth flasks with versene-trypsin solution and the cells were resuspended in assay medium at either 2×10^5 cells/mL (sub-line 5-15; genotype 1b; Lohmann, V., Komer, F., Koch, J-O., Herian, U., Thielmann, L. And Bartenschlager, R., 1999, Science, 285, pp 110-113) or at 3×10^5 cells/mL (genotype 1a; Gu, B., Gates, A. T., Isken, O., Behrens, S. E. and Sarisky, R. T., J. Virol., 2003, 77, 5352-5359). 100 μL of cell suspension were added to all wells and the plates incubated at 37° C. for 72 hours in a 5% CO2 atmosphere.
Following incubation, the assay medium was aspirated from the plates. The cell sheets were washed by gentle immersion in phosphate buffered saline (PBS), which was then aspirated off, and fixed with acetone:methanol (1:1) for 5 minutes. Following a further wash with PBS, 100 μL of ELISA diluent (PBS+0.05% v/v Tween 20+2% w/v skimmed milk powder) were added to all wells and the plates incubated at 37° C. for 30 minutes on an orbital platform. The diluent was removed and each well then received 50 μL of a 1/200 dilution of anti-HCV specific, murine, monoclonal antibody (either Virostat #1872 or #1877), except for wells in one of the compound-free control rows which received diluent alone to act as negative controls. The plates were incubated at 37° C. for 2 hours and washed 3 times with PBS/0.05% Tween 20, then 50 μL of horseradish peroxidase conjugated, anti-mouse, rabbit polyclonal serum (Dako #P0260), diluted 1/1000, were added to all wells. The plates were incubated for a further hour, the antibody removed and the cell sheets washed 5 times with PBS/Tween and blotted dry. The assay was developed by the addition of 50 μL of ortho-phenylenediamine/peroxidase substrate in urea/citrate buffer (SigmaFast, Sigma #P-9187) to each well, and colour allowed to develop for up to 15 minutes. The reaction was stopped by the addition of 25 μL per well of 2 M sulphuric acid and the plates were read at 490 nm on a Fluostar Optima spectrophotometer.
The substrate solution was removed and the plates were washed in tap water, blotted dry and the cells stained with 5% carbol fuchsin in water for 30 minutes. The stain was discarded and the cell sheets washed, dried and examined microscopically to assess cytotoxicity.
The absorbance values from all compound-free wells that had received both primary and secondary antibodies were averaged to obtain a positive control value. The mean absorbance value from the compound-free wells that had not received the primary antibody was used to provide the negative (background) control value. The readings from the duplicate wells at each compound concentration were averaged and, after the subtraction of the mean background from all values, were expressed as a percentage of the positive control signal. The quantifiable and specific reduction of expressed protein detected by the ELISA in the presence of a drug can be used as a measure of replicon inhibition. GraFit software was used to plot the curve of percentage inhibition against compound concentration and derive the 50% inhibitory concentration (IC50) for the compound.

SMILES | IC50
COc1cc(C(=O)N2[C@@H](c3nccs3)[C@@H](c3cnccn3)C[C@@]2(CC(C)C)C(=O)O)ccc1C(C)(C)C (racemic) [Compound A, rel-(2S,4S,5R)-2-Isobutyl-1-(4-tert-butyl-3-methoxybenzoyl)-4-(pyrazin-2-yl)-5-(1,3-thiazol-2-yl)pyrrolidine-2-carboxylic acid, reference compound] | 100 to 10000 nM
COc1cc(C(=O)N2[C@@H](c3nccs3)[C@@H](c3cnccn3)C[C@@]2(Cc2ccccn2)C(=O)O)ccc1C(C)(C)C (racemic) [Compound C, rel-(2R,4S,5R)-1-(4-tert-Butyl-3-methoxybenzoyl)-2-(pyridin-2-ylmethyl)-4-(pyrazin-2-yl)-5-(1,3-thiazol-2-yl)pyrrolidine-2-carboxylic acid, reference compound] | 100 to 10000 nM
COc1cc(C(=O)N2[C@@H](c3nccs3)[C@@H](c3cnccn3)C[C@@]2(Cc2c[nH]cn2)C(=O)O)ccc1C(C)(C)C (racemic) [Compound D, rel-(2R,4S,5R)-1-(4-tert-Butyl-3-methoxybenzoyl)-2-(1H-imidazol-4-yl-methyl)-4-(pyrazin-2-yl)-5-(1,3-thiazol-2-yl)-pyrrolidine-2-carboxylic acid, reference compound] | 100 to 10000 nM
COc1cc(C(=O)N2[C@@H](c3cncs3)[C@@H](c3cnccn3)C[C@@]2(CCSC)C(=O)O)ccc1C(C)(C)C (racemic) [Compound E, rel-(2R,4S,5R)-1-(4-tert-Butyl-3-methoxybenzoyl)-2-(2-(methylthio)ethyl)-4-(pyrazin-2-yl)-5-(1,3-thiazol-5-yl)-pyrrolidine-2-carboxylic acid, reference compound] | 100 to 10000 nM
COc1cc(C(=O)N2[C@@H](c3nccs3)[C@@H](c3cnccn3)C[C@@]2(CCS(C)(=O)=O)C(=O)O)ccc1C(C)(C)C (racemic) [Compound F, rel-(2R,4S,5R)-1-(4-tert-Butyl-3-methoxybenzoyl)-2-(2-(methylsulphonyl)ethyl)-4-pyrazin-2-yl-5-(1,3-thiazol-2-yl)-pyrrolidine-2-carboxylic acid, reference compound] | > 10000 nM
COc1cc(C(=O)N2[C@@H](c3nccs3)[C@@H](c3cnccn3)C[C@@]2(Cc2ccccc2)C(=O)O)ccc1C(C)(C)C (racemic) [Compound G, rel-(2R,4S,5R)-1-(4-tert-Butyl-3-methoxybenzoyl)-2-(phenylmethyl)-4-(pyrazin-2-yl)-5-(1,3-thiazol-2-yl)pyrrolidine-2-carboxylic acid, reference compound] | 100 to 10000 nM
COc1cc(C(=O)N2[C@@H](c3nccs3)[C@@H](c3cnccn3)C[C@@]2(Cc2cscn2)C(=O)O)ccc1C(C)(C)C (racemic) [Example 1, rel-(2R,4S,5R)-1-(3-Methoxy-4-tert-butylbenzoyl)-4-(pyrazin-2-yl)-2-(1,3-thiazol-4-ylmethyl)-5-(1,3-thiazol-2-yl)pyrrolidine-2-carboxylic acid] | < 100 nM
COc1cc(C(=O)N2[C@@H](c3nccs3)[C@@H](c3cnccn3)C[C@@]2(Cc2nccs2)C(=O)O)ccc1C(C)(C)C (racemic) [Example 3, rel-(2R,4S,5R)-1-(3-Methoxy-4-tert-butylbenzoyl)-4-(pyrazin-2-yl)-2-(1,3-thiazol-2-ylmethyl)-5-(1,3-thiazol-2-yl)pyrrolidine-2-carboxylic acid] | < 100 nM
COc1cc(C(=O)N2[C@@H](c3ncc(C)s3)[C@@H](c3cnccn3)C[C@@]2(Cc2ccsn2)C(=O)O)ccc1C(C)(C)C (racemic) [Example 5, rel-(2R,4S,5R)-1-(3-Methoxy-4-tert-butylbenzoyl)-5-(5-methyl-1,3-thiazol-2-yl)-4-(pyrazin-2-yl)-2-(1,2-thiazol-3-ylmethyl)pyrrolidine-2-carboxylic acid] | < 100 nM
COc1cc(C(=O)N2[C@@H](c3nccs3)[C@@H](c3cnccn3)C[C@@]2(Cc2ccsn2)C(=O)O)ccc1C(C)(C)C (racemic) [Example 7, rel-(2R,4S,5R)-1-(3-Methoxy-4-tert-butylbenzoyl)-4-(pyrazin-2-yl)-2-(1,2-thiazol-3-ylmethyl)-5-(1,3-thiazol-2-yl)pyrrolidine-2-carboxylic acid] | < 100 nM
COc1cc(C(=O)N2[C@@H](c3ncc(C)s3)[C@@H](c3cnccn3)C[C@@]2(Cn2cccn2)C(=O)O)ccc1C(C)(C)C (racemic) [Example 9, rel-(2R,4S,5R)-1-(3-Methoxy-4-tert-butylbenzoyl)-5-(5-methyl-1,3-thiazol-2-yl)-4-(pyrazin-2-yl)-2-(1H-pyrazol-1-ylmethyl)pyrrolidine-2-carboxylic acid] | < 100 nM
COc1cc(C(=O)N2[C@@H](c3nccs3)[C@@H](c3cnccn3)C[C@@]2(Cn2cccn2)C(=O)O)ccc1C(C)(C)C (racemic) [Example 11, rel-(2R,4S,5R)-1-(3-Methoxy-4-tert-butylbenzoyl)-4-(pyrazin-2-yl)-2-(1H-pyrazol-1-ylmethyl)-5-(1,3-thiazol-2-yl)pyrrolidine-2-carboxylic acid] | < 100 nM
COc1cc(C(=O)N2[C@@H](c3ncc(C)s3)[C@@H](c3cnccn3)C[C@@]2(Cc2nccs2)C(=O)O)ccc1C(C)(C)C (racemic) [Example 13, rel-(2R,4S,5R)-1-(3-Methoxy-4-tert-butylbenzoyl)-5-(5-methyl-1,3-thiazol-2-yl)-4-(pyrazin-2-yl)-2-(1,3-thiazol-2-ylmethyl)pyrrolidine-2-carboxylic acid] | < 100 nM
COc1cc(C(=O)N2[C@@H](c3ncc(C)s3)[C@@H](c3cnccn3)C[C@@]2(Cc2cscn2)C(=O)O)ccc1C(C)(C)C (racemic) [Example 15, rel-(2R,4S,5R)-1-(3-Methoxy-4-tert-butylbenzoyl)-5-(5-methyl-1,3-thiazol-2-yl)-4-(pyrazin-2-yl)-2-(1,3-thiazol-4-ylmethyl)pyrrolidine-2-carboxylic acid] | < 100 nM
COc1cc(C(=O)N2[C@@H](c3nccs3)[C@@H](c3cnccn3)C[C@@]2(CC(C)C)C(=O)O)ccc1C(C)(C)C (single isomer, unassigned; enantiomer a) [Compound B, reference compound] | 100 to 10000 nM
COc1cc(C(=O)N2[C@@H](c3nccs3)[C@@H](c3cnccn3)C[C@@]2(Cc2cscn2)C(=O)O)ccc1C(C)(C)C (single isomer, unassigned; enantiomer a) [Example 2] | < 100 nM
COc1cc(C(=O)N2[C@@H](c3nccs3)[C@@H](c3cnccn3)C[C@@]2(Cc2nccs2)C(=O)O)ccc1C(C)(C)C (single isomer, unassigned; enantiomer a) [Example 4] | < 100 nM
COc1cc(C(=O)N2[C@@H](c3ncc(C)s3)[C@@H](c3cnccn3)C[C@@]2(Cc2ccsn2)C(=O)O)ccc1C(C)(C)C (single isomer, unassigned; enantiomer a) [Example 6] | < 100 nM
COc1cc(C(=O)N2[C@@H](c3nccs3)[C@@H](c3cnccn3)C[C@@]2(Cc2ccsn2)C(=O)O)ccc1C(C)(C)C (single isomer, unassigned; enantiomer a) [Example 8] | < 100 nM
COc1cc(C(=O)N2[C@@H](c3ncc(C)s3)[C@@H](c3cnccn3)C[C@@]2(Cn2cccn2)C(=O)O)ccc1C(C)(C)C (single isomer, unassigned; enantiomer a) [Example 10] | < 100 nM
COc1cc(C(=O)N2[C@@H](c3nccs3)[C@@H](c3cnccn3)C[C@@]2(Cn2cccn2)C(=O)O)ccc1C(C)(C)C (single isomer, unassigned; enantiomer a) [Example 12] | < 100 nM
COc1cc(C(=O)N2[C@@H](c3ncc(C)s3)[C@@H](c3cnccn3)C[C@@]2(Cc2nccs2)C(=O)O)ccc1C(C)(C)C (single isomer, unassigned; enantiomer a) [Example 14] | < 100 nM
COc1cc(C(=O)N2[C@@H](c3ncc(C)s3)[C@@H](c3cnccn3)C[C@@]2(Cc2cscn2)C(=O)O)ccc1C(C)(C)C (single isomer, unassigned; enantiomer a) [Example 16] | < 100 nM
